According to US20070269503A1, “Combinations of HMG CoA reductase inhibitors and negatively charged phospholipids and uses thereof” (priority 2006, published 2007):
Like-named read-outs stand apart in the source and are kept apart here.

Assays:
[1] = Oral PI, plasma HDL cholesterol and apoA-I; assay type: in vivo; settings: conventional formulations, about 5.6 g/day
Source text: The efficacy of orally administered phosphatidyl-inositol(PI) for raising plasma HDL cholesterol and apoA-I levels can be improved considerably (e.g. 2- to 8-fold) by combining PI with an intestinal absorption enhancer (IAE) (U.S. patent application Ser. No. 60/684212, herein incorporated by reference).

[2] = test system: HepG2 cells; settings: cited from earlier work
[3] = oral PI combined with an intestinal absorption enhancer (IAE); cited from earlier work
[4] = normocholesterolemic male Sprague-Dawley rats; 5.5% by weight of rat chow, approximately 4 g/Kg body weight; cited from earlier work

In the case of phosphatidylinositol [PI], the “increase in apoA-I” value [1] is given as about 10%, the “increase in plasma HDL cholesterol” value [1] is given as about 20% and the “inhibition of cholesterol synthesis” value ([2]; 11.7 μM) is given as 50%. The “improvement of efficacy for raising plasma HDL cholesterol and apoA-I levels” value [3] was 2- to 8 fold.
In the case of `CC(C)c1c(C(=O)Nc2ccccc2)c(-c2ccccc2)c(-c2ccc(F)cc2)n1CC[C@@H](O)C[C@@H](O)CC(=O)O` [atorvastatin], the “inhibition of cholesterol synthesis” value ([2]; concentrations between 0.01 to 10 μM) is given as 45-65%.
In the case of Phosphatidic acid [PA], the “decrease in plasma triglycerides” value [4] is given as “about 40%” and the “increase in HDL cholesterol” value [4] is given as “about 2 fold”.
